Reference: the supplement of paper PMC10307832

Experiments:
Assay in all cases: relative viability (nuclei count vs DMSO), 5 days (fraction); higher = more cells survive
[1] = test system: 201T
How it was run: (§1)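 Values are medians from duplicate plates. Each reflects relative viability, defined as the nuclei count of treated wells over that of vehicle wells. Lung cancer cell lines in 1536-well plates were pin-tool dosed one day after seeding with one drug alone or with a fixed anchor-drug dose plus five library-drug doses (not always all listed) in √10 steps, then fixed, stained and imaged at 4× after 5 days.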

[2] = test system: BEN
How it was run: as §1

[3] = test system: EMC-BAC-2
How it was run: as §1

[4] = test system: HARA
How it was run: as §1

[5] = test system: HCC-44
How it was run: as §1

[6] = test system: LCLC-103H
How it was run: as §1

[7] = test system: LOU-NH91
How it was run: as §1

[8] = test system: NCI-H1395
How it was run: as §1

[9] = test system: NCI-H1666
How it was run: as §1

[10] = test system: NCI-H1993
How it was run: as §1

[11] = test system: NCI-H2009
How it was run: as §1

[12] = test system: NCI-H2023
How it was run: as §1

Molecule C[C@@H]1CN(CC(=O)Nc2ccc3c(c2)Cc2cccc(-c4cc(=O)cc(N5CCOCC5)o4)c2S3)C[C@H](C)O1 + CCNC(=O)c1noc(-c2cc(C(C)C)c(O)cc2O)c1-c1ccc(CN2CCOCC2)cc1 [Luminespib] (partner 0.01 µM) has a relative viability ([1]; first compound 0.04 µM) of 1.06, a relative viability ([1]; first compound 0.1265 µM) of 1.05 and a relative viability ([1]; first compound 0.4 µM) of 1.04. The relative viability ([1]; first compound 4 µM) was 1.01, the relative viability ([2]; first compound 0.04 µM) was 0.264 and the relative viability ([2]; first compound 0.1265 µM) was 0.252. For the same molecule, the relative viability ([2]; first compound 0.4 µM) was 0.463, the relative viability ([2]; first compound 4 µM) was 0.322 and the relative viability ([3]; first compound 0.04 µM) was 1.28. The relative viability ([3]; first compound 0.1265 µM) was 1.17, the relative viability ([3]; first compound 0.4 µM) was 1.08 and the relative viability ([3]; first compound 4 µM) was 1.19. The relative viability ([4]; first compound 0.1265 µM) was 0.675, the relative viability ([4]; first compound 0.4 µM) was 0.471 and the relative viability ([4]; first compound 4 µM) was 0.89. It also gave a relative viability ([5]; first compound 0.04 µM) of 0.9, a relative viability ([5]; first compound 0.1265 µM) of 1.04 and a relative viability ([5]; first compound 0.4 µM) of 1.19. It also gave a relative viability ([5]; first compound 4 µM) of 0.949, a relative viability ([6]; first compound 0.04 µM) of 0.949 and a relative viability ([6]; first compound 0.1265 µM) of 0.971. It also gave a relative viability ([6]; first compound 0.4 µM) of 0.906, a relative viability ([6]; first compound 4 µM) of 0.72 and a relative viability ([7]; first compound 0.04 µM) of 0.39. For the same molecule, the relative viability ([7]; first compound 0.1265 µM) was 0.358, the relative viability ([7]; first compound 0.4 µM) was 0.3 and the relative viability ([7]; first compound 4 µM) was 0.371. It also gave a relative viability ([8]; first compound 0.04 µM) of 0.695, a relative viability ([8]; first compound 0.1265 µM) of 0.627 and a relative viability ([8]; first compound 0.4 µM) of 0.69. It also gave a relative viability ([8]; first compound 4 µM) of 0.741, a relative viability ([9]; first compound 0.04 µM) of 1 and a relative viability ([9]; first compound 0.1265 µM) of 1.09. The relative viability ([9]; first compound 0.4 µM) was 1.12, the relative viability ([9]; first compound 4 µM) was 0.905 and the relative viability ([10]; first compound 0.04 µM) was 0.872. The relative viability ([10]; first compound 0.1265 µM) was 0.913, the relative viability ([10]; first compound 0.4 µM) was 0.621 and the relative viability ([10]; first compound 4 µM) was 0.762. For the same molecule, the relative viability ([11]; first compound 0.04 µM) was 1.01, the relative viability ([11]; first compound 0.1265 µM) was 0.995 and the relative viability ([11]; first compound 0.4 µM) was 0.983. For the same molecule, the relative viability ([11]; first compound 4 µM) was 0.804, the relative viability ([12]; first compound 0.04 µM) was 0.691 and the relative viability ([12]; first compound 0.1265 µM) was 0.75. For the same molecule, the relative viability ([12]; first compound 0.4 µM) was 0.543 and the relative viability ([12]; first compound 4 µM) was 0.37.
